Test: Moisture loss or gain of filled capsules exposed to a 50% RH environment until equilibrium
Type: physicochemical
Details: 50% R.H. environment
Protocol: An alternative method for evaluating the level of water required to provide a stable hygroscopic formulation involves the preparation of capsules containing different water contents and then quantifying moisture loss or gain when exposed to a 50% RH environment (middle of acceptable RH range for capsules 35% RH to 65% RH). Maltitol, a sugar which is also a hygroscopic excipient, was dissolved in water to produce several aqueous maltitol solutions of concentration 16, 18, 20, 22, 24, 26, 28, 30, 32, 34 and 36% water in maltitol. Both gelatin and HPMC capsules were filled with the various concentrations of solution and the capsules were sealed by banding. The capsules were then exposed to a 50% R.H environment and allowed the capsules to re-equilibrate.
Weight loss (and water loss) ceased when the capsules shell content was in equilibrium with the capsule shell and with the 50% R.H. environment. The equilibrium water content in maltitol that produced stables capsules was approximately 14% water content for gelatin capsules and approximately 13% water content for HPMC capsules.

OC[C@@H](O)[C@@H](O[C@H]1O[C@H](CO)[C@@H](O)[C@H](O)[C@H]1O)[C@H](O)[C@@H](O)CO [maltitol, Maltitol]
equilibrium water content in maltitol that produced stable capsules (HPMC capsules): approximately 13% | equilibrium water content in maltitol that produced stable capsules (gelatin capsules): approximately 14%

Source: patent publication US20100086587A1, “HARD SHELL CAPSULE FORMULATIONS” (priority 2006, published 2010)
